From patent publication US7687055B2, “Method of treating keratinic fibers with creatine, creatinine and/or their salts to strengthen, restructure, harden and stabilize them” (Wella AG, priority 2001, dated 2010)

Columns and labels:
[1] = Measurement of the improvement in combability: combing force on hair strands; conditions: 1 wt. % creatine in shampoo of Example 2 vs same shampoo without creatine (1.43 N to 1.21 N); t-test significance level 97.5%
Description: Measurement of the Improvement in Combability The combability of hair is also an important parameter for describing hair quality. Various external influences such as certain cosmetic treatments (bleaching, dyeing permanent waving), weathering and frequent combing and brushing cause a deterioration in hair combability which is attributable to damage to the cuticula. The principle of most methods for measuring combability consists of measuring the force (combing force) required to move a comb through a hair strand under exactly defined boundary conditions. Within the framework of our own study, an automated apparatus was used for this purpose. […] The strands were then repeatedly and automatically combed one after another at a constant rate of speed, and for each combing the combing force N (newton) was recorded as a function of the combing path (strand length). The reported combing force values were finally obtained by averaging the combing forces over the combing path. The lower the combing force, the better is the combability of the hair.

[2] = Measurement of the repair effect: tensile elongation measurement, strand tensile strength of hair; conditions: 1 wt. % creatine in shampoo of Example 2 vs same shampoo without creatine (14.8 to 15.5 cN/tex); t-test significance level 99.9%
Procedure: Measurement of the Repair Effect
To determine the breaking force for hair, which is an indicator of the structural integrity of the hair cortex and is thus a measure of the degree of damage, common tensile elongation measurements were performed. From each hair strand, 20 individual hairs were selected and the individual hair diameters were measured with a computer-controlled laser micrometer. The force required to break the individual hairs was then determined with a tensile elongation tester (MTT 160/160 Series Miniature Tensile Tester, serial No. 600.95.05.001, DIA-STRON Ltd, England).
From these individual test results, which because of the differing hair diameters are different, the strand tensile strength (STS) was determined by calculating from the individual values the tensile strength for a hair diameter of 0.08 mm (mean diameter) taking into account the hair diameters. By taking into account the hair density, a conversion to the unit for strand tensile strength (cN/tex) was finally made. The higher the numerical value of the strand tensile strength, the lower is the hair damage.

SMILES: CN(CC(=O)O)C(=N)N [creatine, M-amidinosarcosine]
- reduction of combing force (wet combability) [1]: 15.3%
- increase of strand tensile strength [2]: 4.7%
